Data reported in patent US9278120B2, “Inflammatory eye disorders” (Massachusetts Eye and Ear Infirmary, priority 2012, dated 2016).

Legend:
[1] = test system: dendritic cells in the central cornea and superior limbus; test: In vivo confocal microscopy of dendritiform immune cell density in LSCI patients; set-up: species or system human; settings: for average density of dendritic cells in the superior limbus: after treatment, pooled LSCI subjects (loteprednol etabonate or rimexolone); for average dendritic cell density in the cornea: following three months of treatment, pooled LSCI subjects (loteprednol etabonate 4 eyes, rimexolone 2 eyes), 577.4±323.8 at presentation, p=0.001
Method: (§1) In these experiments, the clinical charts and images of three patients diagnosed with LSCI were retrospectively reviewed. […] The patients were followed monthly until resolution. The patients were treated with topical steroid drops based on in vivo confocal microscopy findings that indicate the presence of inflammation. […] The images were quantified for dendritiform immune cell density (DC) and total counts of nerves and branches with respective density with ImageJ/Neuron J software.

[2] = Visual acuity in limbal stem cell insufficiency (LSCI) patients treated with topical steroid drops; type: in vivo, human; settings: OU
Method: as §1

| SMILES | average density of dendritic cells in the superior limbus [1] | average dendritic cell density in the cornea [1] | visual acuity after treatment ([2]; LSCI Patient 2, 0.5% QID initially, then taper for 11 months, 20/20 OD and 20/60 OS at presentation) | visual acuity after treatment ([2]; LSCI Patient 3, 0.5% QID initially, then taper for 4 months, 20/30 OD and 20/20 OS at presentation) | visual acuity after treatment ([2]; LSCI Patient 1, 1% QID initially, then taper for 5 months, 20/25 OD and 20/40 OS at presentation) |
| --- | --- | --- | --- | --- | --- |
| CCOC(=O)O[C@]1(C(=O)OCCl)CC[C@H]2[C@@H]3CCC4=CC(=O)C=C[C@]4(C)[C@H]3[C@@H](O)C[C@@]21C [loteprednol etabonate] | 238.2±158.4 cells/mm^2 | 234.6±233.7 cells/mm^2 | 20/20 | 20/20 | – |
| CCC(=O)[C@@]1(C)[C@H](C)C[C@H]2[C@@H]3CCC4=CC(=O)C=C[C@]4(C)[C@H]3[C@@H](O)C[C@@]21C [rimexolone] | 238.2±158.4 cells/mm^2 | 234.6±233.7 cells/mm^2 | – | – | 20/20 |
